Reference: patent US11976083B2, “Inhibitors of peptidylarginine deiminases” (Gilead Sciences, Inc., priority 2020, dated 2024)

Molecular target: T1, human PAD4 (Homo sapiens, UniProt Q9UM07)
T1 construct: human PAD4 (NM_012387), A2-P663, was PCR amplified; His-SUMO (N, cleaved yes); made in house; host or cells: E. coli BL21(DE3)
Experiment: In vitro PAD4 BAEE biochemical assay
Conditions: BAEE substrate 3 mM, 5 nM PAD4, 2 mM calcium chloride; geometric mean of multiple experiments
In short: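 Assay was run at 25 °C using 3 mM BAEE and 5 nM human PAD4 after a 30 min compound preincubation; ammonia produced over 2 h was quantified by OPA-derived fluorescence. Full inhibition was defined by 50 µM BB-Cl-Amidine, and IC50 came from variable-slope nonlinear regression.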

T1 sequence (Q9UM07 2-663): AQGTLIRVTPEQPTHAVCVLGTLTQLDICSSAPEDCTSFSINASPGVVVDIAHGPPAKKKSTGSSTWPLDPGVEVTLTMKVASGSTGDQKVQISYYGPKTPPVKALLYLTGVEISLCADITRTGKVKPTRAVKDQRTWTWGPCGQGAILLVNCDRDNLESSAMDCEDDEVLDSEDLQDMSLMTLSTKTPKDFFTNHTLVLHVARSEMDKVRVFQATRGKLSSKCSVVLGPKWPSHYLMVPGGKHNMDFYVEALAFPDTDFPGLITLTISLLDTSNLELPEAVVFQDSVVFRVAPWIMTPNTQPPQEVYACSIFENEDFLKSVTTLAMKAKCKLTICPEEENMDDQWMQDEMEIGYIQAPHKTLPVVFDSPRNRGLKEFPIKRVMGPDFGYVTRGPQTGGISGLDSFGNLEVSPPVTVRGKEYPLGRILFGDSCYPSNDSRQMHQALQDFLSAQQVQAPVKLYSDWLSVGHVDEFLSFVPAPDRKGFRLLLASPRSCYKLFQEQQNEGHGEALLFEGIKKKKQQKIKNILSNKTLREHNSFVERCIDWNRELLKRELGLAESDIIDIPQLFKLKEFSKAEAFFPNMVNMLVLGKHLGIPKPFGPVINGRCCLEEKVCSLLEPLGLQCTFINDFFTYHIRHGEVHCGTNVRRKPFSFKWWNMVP

Row | SMILES | IC50
1 | COc1cc(C(=O)N2[C@H]3CC[C@@H]2[C@H](N)C3)cc2nc(-c3cc4ccc5nc4n3CCCCCCCC(=O)N[C@H]5C(F)(F)F)n(C)c12 [Example 257, (11~{R})-17-[5-[(1~{R},2~{R},4~{S})-2-amino-7-azabicyclo[2.2.1]heptane-7-carbonyl]-7-methoxy-1-methyl-benzimidazol-2-yl]-11-(trifluoromethyl)-1,10,19-triazatricyclo[10.5.2.0^{15,18}]nonadeca-12(19),13,15(18),16-tetraen-9-one] | 2470 nM
2 | COc1cc(C(=O)N2[C@H]3CC[C@@H]2[C@H](N)C3)cc2nc(-c3cc4ccc5nc4n3CCCCCCCC(=O)N[C@@H]5C(F)(F)F)n(C)c12 [Example 258, (11~{S})-17-[5-[(1~{R},2~{R},4~{S})-2-amino-7-azabicyclo[2.2.1]heptane-7-carbonyl]-7-methoxy-1-methyl-benzimidazol-2-yl]-11-(trifluoromethyl)-1,10,19-triazatricyclo[10.5.2.0^{15,18}]nonadeca-12(19),13,15(18),16-tetraen-9-one] | 39 nM
3 | COc1cc(C(=O)N2[C@H]3CC[C@@H]2[C@H](N)C3)cc2nc(-c3cc4ccc5nc4n3CCCCCCCC(=O)NC5C3CC3)n(C)c12 (stereo partly shown) [Example 259, 17-[5-[(1˜{R},2˜{R},4˜{S})-2-amino-7-azabicyclo[2.2.1]heptane-7-carbonyl]-7-methoxy-1-methyl-benzimidazol-2-yl]-11-cyclopropyl-1,10,19-triazatricyclo[10.5.2.0^{15,18}]nonadeca-12(19),13,15(18),16-tetraen-9-one] | 37 nM
4 | COc1cc(C(=O)N2CC[C@H]3CCCN[C@H]3C2)cc2nc(-c3cc4ccc5nc4n3CCCCCCC3(CC3)C(=O)N[C@@H]5C)n(C)c12 [Example 260, (11~{R})-17-[5-[(4~{a}~{R},8~{a}~{R})-2,3,4,4~{a},5,6,8,8~{a}-octahydro-1~{H}-1,7-naphthyridine-7-carbonyl]-7-methoxy-1-methyl-benzimidazol-2-yl]-11-methyl-spiro[1,10,19-triazatricyclo[10.5.2.0^{15,18}]nonadeca-12(19),13,15(18),16-tetraene-8,1′-cyclopropane]-9-one] | 453 nM
5 | COc1cc(C(=O)N2CCC[C@@H](N)C2)cc2nc(-c3cc4ccc5nc4n3CCCCCCC3(CCC3)C(=O)N[C@@H]5C)n(C)c12 [Example 263, (11~{R})-17-[5-[(3~{R})-3-aminopiperidine-1-carbonyl]-7-methoxy-1-methyl-benzimidazol-2-yl]-11-methyl-spiro[1,10,19-triazatricyclo[10.5.2.0^{15,18}]nonadeca-12(19),13,15(18),16-tetraene-8,1′-cyclobutane]-9-one] | 69 nM
6 | COc1cc(C(=O)N2CCC[C@@H](N)C2)cc2nc(-c3cc4ccc5nc4n3C[C@@H]3C[C@H]3C(OC)CCCC(=O)N[C@@H]5C)n(C)c12 (stereo partly shown) [Example 264, (3~{R},5~{R},12~{R})-18-[5-[(3~{R})-3-aminopiperidine-1-carbonyl]-7-methoxy-1-methyl-benzimidazol-2-yl]-6-methoxy-12-methyl-1,11,20-triazatetracyclo[11.5.2.0^{3,5}.0^{16,19}] icosa-13(20),14,16(19),17-tetraen-10-one] | 91 nM
7 | COc1cc(C(=O)N2CCC[C@@H](N)C2)cc2nc(-c3cc4ccc5nc4n3C[C@@H]3C[C@H]3COC[C@@H](C)C(=O)N[C@@H]5C)n(C)c12 [Example 265, (5~{R},9~{R},12~{R})-18-[5-[(3~{R})-3-aminopiperidine-1-carbonyl]-7-methoxy-1-methyl-benzimidazol-2-yl]-9,12-dimethyl-7-oxa-1,11,20-triazatetracyclo[11.5.2.0^{3,5}.0^{16,19}] icosa-13(20),14,16(19),17-tetraen-10-one] | 81 nM
8 | COc1cc(C(=O)N2CCC[C@@H](N)C2)cc2nc(-c3cc4ccc5nc4n3C[C@@H]3C[C@H]3COC[C@H](C)C(=O)N[C@@H]5C)n(C)c12 [Example 266, (5~{R},9~{S},12~{R})-18-[5-[(3~{R})-3-aminopiperidine-1-carbonyl]-7-methoxy-1-methyl-benzimidazol-2-yl]-9,12-dimethyl-7-oxa-1,11,20-triazatetracyclo[11.5.2.0^{3,5}.0^{16,19}] icosa-13(20),14,16(19),17-tetraen-10-one] | 153 nM
9 | COc1cc(C(=O)N2CCC[C@@H](N)C2)cc2nc(-c3cc4ccc5nc4n3C[C@@H]3C[C@H]3CO[C@@H](C)CC(=O)N[C@@H]5C)n(C)c12 [Example 267, (5~{R},8~{S},12~{R})-18-[5-[(3~{R})-3-aminopiperidine-1-carbonyl]-7-methoxy-1-methyl-benzimidazol-2-yl]-8,12-dimethyl-7-oxa-1,11,20-triazatetracyclo[11.5.2.0^{3,5}.0^{16,19}] icosa-13(20),14,16(19),17-tetraen-10-one] | 88 nM
10 | COc1cc(C(=O)N2CCC[C@@H](N)C2)cc2nc(-c3cc4ccc5nc4n3C[C@@H]3C[C@H]3CO[C@H](C)CC(=O)N[C@@H]5C)n(C)c12 [Example 268, (5~{R},8~{R},12~{R})-18-[5-[(3~{R})-3-aminopiperidine-1-carbonyl]-7-methoxy-1-methyl-benzimidazol-2-yl]-8,12-dimethyl-7-oxa-1,11,20-triazatetracyclo[11.5.2.0^{3,5}.0^{16,19}] icosa-13(20),14,16(19),17-tetraen-10-one] | 137 nM
11 | COc1cc(C(=O)N2CCC[C@@H](N)C2)cc2nc(-c3cc4ccc5nc4n3C[C@@H]3C[C@H]3CCCCC(=O)N[C@@H]5C)n(C)c12 [Example 269, (3~{R},5~{R},12~{R})-18-[5-[(3~{R})-3-aminopiperidine-1-carbonyl]-7-methoxy-1-methyl-benzimidazol-2-yl]-12-methyl-1,11,20-triazatetracyclo[11.5.2.0^{3,5}.0^{16,19}] icosa-13(20),14,16(19),17-tetraen-10-one] | 36 nM
12 | COc1cc(C(=O)N2CCC[C@@H](N)C2)cc2nc(-c3cc4ccc5nc4n3C[C@@H]3C[C@H]3C(OC)CCCC(=O)N[C@@H]5C)n(C)c12 (stereo partly shown) [Example 270, (3~{R},5~{R},12~{R})-18-[5-[(3~{R})-3-aminopiperidine-1-carbonyl]-7-methoxy-1-methyl-benzimidazol-2-yl]-6-methoxy-12-methyl-1,11,20-triazatetracyclo[11.5.2.0^{3,5}.0^{16,19}] icosa-13(20),14,16(19),17-tetraen-10-one] | 90 nM
13 | COc1cc(C(=O)N2CCC[C@@H](N)C2)cc2nc(-c3cc4ccc5nc4n3C[C@H]3C[C@@H]3COC(C)CC(=O)N[C@@H]5C)n(C)c12 (stereo partly shown) [Example 271, (3~{S},5~{S},12~{R})-18-[5-[(3~{R})-3-aminopiperidine-1-carbonyl]-7-methoxy-1-methyl-benzimidazol-2-yl]-8,12-dimethyl-7-oxa-1,11,20-triazatetracyclo[11.5.2.0^{3,5}.0^{16,19}] icosa-13(20),14,16(19),17-tetraen-10-one] | 65 nM
14 | COc1cc(C(=O)N2CCC[C@@H](N)C2)cc2nc(-c3cc4ccc5nc4n3C[C@@H]3C[C@H]3CCCC(C)C(=O)N[C@@H]5C)n(C)c12 (stereo partly shown) [Example 272, (3~{R},5~{R},12~{R})-18-[5-[(3~{R})-3-aminopiperidine-1-carbonyl]-7-methoxy-1-methyl-benzimidazol-2-yl]-9,12-dimethyl-1,11,20-triazatetracyclo[11.5.2.0^{3,5}.0^{16,19}] icosa-13(20),14,16(19),17-tetraen-10-one] | 69 nM
15 | COc1cc(C(=O)N2CCC[C@@H](N)C2)cc2nc(-c3cc4ccc5cc4n3CCC/C=C/CC(C)(C)C(=O)N[C@@H]5C)n(C)c12 [Example 273, (5˜{E},11˜{R})-17-[5-[(3˜{R})-3-aminopiperidine-1-carbonyl]-7-methoxy-1-methyl-benzimidazol-2-yl]-8,8,11-trimethyl-1,10-diazatricyclo[10.5.2.0^{15,18}]nonadeca-5,12(19),13,15(18),16-pentaen-9-one] | 68 nM
16 | COc1cc(C(=O)N2CCC[C@@H](N)C2)cc2nc(-c3cc4ccc5nc4n3C[C@@H]3C[C@H]3CCCC(C)(C)C(=O)N[C@@H]5C)n(C)c12 [Example 274, (3˜{R},5˜{R},12˜{R})-18-[5-[(3˜{R})-3-aminopiperidine-1-carbonyl]-7-methoxy-1-methyl-benzimidazol-2-yl]-9,9,12-trimethyl-1,11,20-triazatetracyclo[11.5.2.0^{3,5}.0^{16,19}]icosa-13(20),14,16(19),17-tetraen-10-one] | 104 nM
17 | COc1cc(C(=O)N2CC[C@@H](F)[C@@H](N)C2)cc2nc(-c3cc4ccc5nc4n3CCCCCCC(C)(C)C(=O)N[C@@H]5C)n(C)c12 [Example 276, (11~{R})-17-[5-[(3~{S},4~{R})-3-amino-4-fluoro-piperidine-1-carbonyl]-7-methoxy-1-methyl-benzimidazol-2-yl]-8,8,11-trimethyl-1,10,19-triazatricyclo[10.5.2.0^{15,18}]nonadeca-12(19),13,15(18),16-tetraen-9-one] | 343 nM
18 | COc1cc(C(=O)N2[C@H]3CC[C@@H]2[C@H](N)C3)cc2nc(-c3cc4ccc5nc4n3CCCCCCC3(CCC3)C(=O)N[C@@H]5C)n(C)c12 [Example 278, (11~{R})-17-[5-[(1~{R},2~{R},4~{S})-2-amino-7-azabicyclo[2.2.1]heptane-7-carbonyl]-7-methoxy-1-methyl-benzimidazol-2-yl]-11-methyl-spiro[1,10,19-triazatricyclo[10.5.2.0^{15,18}]nonadeca-12(19),13,15(18),16-tetraene-8,1′-cyclobutane]-9-one] | 47 nM
19 | COc1cc(C(=O)N2[C@H]3CC[C@@H]2[C@H](N)C3)cc2nc(-c3cc4ccc5nc4n3CCCCCCC3(CC3)C(=O)N[C@@H]5C)n(C)c12 [Example 279, (11~{R})-17-[5-[(1~{R},2~{R},4~{S})-2-amino-7-azabicyclo[2.2.1]heptane-7-carbonyl]-7-methoxy-1-methyl-benzimidazol-2-yl]-11-methyl-spiro[1,10,19-triazatricyclo[10.5.2.0^{15,18}]nonadeca-12(19),13,15(18),16-tetraene-8,1′-cyclopropane]-9-one] | 82 nM
